# Columns and labels:
# [1] = test system: rabbit infra-renal abdominal aorta, in-stent plaque; assay: Morphological analysis of intima/media ratios 28 days after in vivo stent implantation; set-up: species or system New Zealand White rabbits; details: 28 days after stent implantation, mean ± SE
# Procedure: Age-matched adult male New Zealand White rabbits weighing 3.8–4.2 kg were used in accordance to NIH and institutional guidelines (n=6 animals per group). Under general anesthesia, an arteriotomy at the femoral artery was performed and a 5 Fr introducing sheath was placed. Under fluoroscopic guidance, aseptically prepared channeled stents filled with blank or angiostatin microspheres were deployed in the infra-renal abdominal aorta. Stents were post-dilated at 8 atm with a 5 mm angioplasty balloon (Jupiter, Cordis, Miami, Fla.) to a final lumen size of 125% above the baseline with care taken to ensure that […] were present within the stent segment. Pre- and post-deployment digital subtraction angiograms were recorded for the blank procedural control and angiostatin treatment groups. The rabbits were fed a 0.25% cholesterol diet after the intervention. Early 7 day follow up (n=3 per group) or late 28 day follow-up (n=3 per group) animals underwent total-body perfusion-fixation as previously described with immediate excision of the aortic segment containing stent. The 7 day aortic specimens were excised longitudinally and stents were removed. The resulting aortic segments were divided into two equal subsegments. One subsegment of each underwent fixation in 10% neutral buffered formalin and embedded in paraffin for light microscopic and morphologic analysis. The remaining subsegment of each specimen was snap frozen for molecular assay. The 28 days aortic specimens were fixed in 10% neutral buffered formalin and were embedded in PolyBed (Polysciences, Warrington, Pa.) for light microscopic and morphologic analysis.
# The seven day analysis consisted of thick (5 μm) cross sections of the aortic wall were obtained from the paraffin-embedded specimens (n=9 sections per group). An elastic von Gieson-Masson trichrome or Elastica van Gieson-Hematoxylin double stain was performed for light microscopic analysis. For the 28 day specimen analysis (n=3 animals per group), each plastic-embedded aorta with stents was cut into five pieces longitudinally equal lengths. These pieces were stained by modified Verhoff elastic staining. Five cross sectional images of the stained aorta were obtained (n=15 sections per group) from one side of plastic pieces. […] Using Image Pro Plus software (Media Cybernetics, Silver Spring, Md.), the cross-sectional area of the intima and the media were determined by blinded observers. The ratio of intima area to media area subsequently tabulated for each, with the results presented as Table 2. Mean, standard error, and significance were determined.
# [2] = test system: rabbit infra-renal abdominal aorta, in-stent plaque; assay: Local plaque stability parameters: macrophage infiltrate and endothelial density (CD31), 7 days; assay type: in vivo, New Zealand White rabbits; details: 7 days after stent implantation, stents releasing angiostatin, mean ± SE
# Procedure: Age-matched adult male New Zealand White rabbits weighing 3.8–4.2 kg were used in accordance to NIH and institutional guidelines (n=6 animals per group). Under general anesthesia, an arteriotomy at the femoral artery was performed and a 5 Fr introducing sheath was placed. Under fluoroscopic guidance, aseptically prepared channeled stents filled with blank or angiostatin microspheres were deployed in the infra-renal abdominal aorta. Stents were post-dilated at 8 atm with a 5 mm angioplasty balloon (Jupiter, Cordis, Miami, Fla.) to a final lumen size of 125% above the baseline with care taken to ensure that […] were present within the stent segment. Pre- and post-deployment digital subtraction angiograms were recorded for the blank procedural control and angiostatin treatment groups. The rabbits were fed a 0.25% cholesterol diet after the intervention. […]
# Cross sections at the 7 day time point evaluated above were obtained (two per segment) from each vessel and incubated with a primary monoclonal antibody to rabbit macrophage (clone RAM-11, 1/800 dilution, DAKO, Carpinteria, Calif.). The number of positive cells per cross section was counted by a blinded observer. […] Mean and standard error were tabulated for each group with significance determined as before and p values as reported.
molecule,measurement,setting,value
FGF: acidic FGF (Calbiochem) with endotoxin-free heparin as a stabilizer,Intima to media ratio,"[1]; stents releasing acidic FGF (200 ng with 1280 units heparin as stabilizer), P = 0.004 vs. controls",1.634 ± 0.051
TGFβ1: transforming growth factor β1 (Oncogene Research),Intima to media ratio,"[1]; stents releasing TGFβ1 (2.0 μg loaded), P = 0.004 vs. controls",1.803 ± 0.053
alpha-1-antitrypsin [AAT],Intima to media ratio,"[1]; stents releasing an elastase inhibitor (40 mg alpha-1-antitrypsin loaded), P = 0.0001 vs. controls",1.322 ± 0.060
angiostatin,Macrophages (number of cross-sectional macrophages),[2],34.889 ± 3.948 P = 0.0011 cells per cross section
same,CD31 (number of plaque microvessels),[2]; P < 0.05 vs. controls,0.111 ± 0.111
same,Intima to media ratio,"[1]; stents releasing angiostatin (2.0 mg loaded in microspheres), P = 0.003 vs. controls",1.610 ± 0.050
"Fas ligand: pro-apoptotic factor Fas ligand (Oncogene Research) (protein, UniProt P48023 130-281, looked up) Tumor necrosis factor ligand …: QIGHPSPPPEKKELRKVAHLTGKSNSRSMPLEWEDTYGIVLLSGVKYKKGGLVINETGLYFVYSKVYFRGQSCNNLPLSHKVYMRNSKYPQDLVMMEGKMMSYCTTGQMWARSSYLGAVFNLTSADHLYVNVSELSLVNFEESQTFFGLYKL",Intima to media ratio,"[1]; stents releasing Fas Ligand (10 μg loaded), P < 0.05 vs. controls",1.356 ± 0.053
